Source: patent US12077503B2, “Substituted cyclic amides and their use as herbicides” (FMC CORPORATION, priority 2015, dated 2024)

Legend:
Assay type in all cases: in vivo
[1] = system: barnyardgrass (Echinochloa crus-galli); test: Test A preemergence; settings: Echinochloa crus-galli, pre-emergence, 240 h, 0 to 100 scale where 0 is no effect and 100 is complete control, read-out: Barnyardgrass plant response rating
Method in brief: (§1)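 Preemergence soil spray on seeded pots or post-emergence spray on 1–2 leaf plants, in loam–sand blend. Greenhouse ~10 d. Visual rating 0–100 against untreated plants.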

[2] = system: Kochia (Kochia scoparia); test: Test A preemergence; settings: Bassia scoparia, pre-emergence, 240 h, 0 to 100 scale where 0 is no effect and 100 is complete control, read-out: Kochia plant response rating
Method in brief: as §1

[3] = system: giant foxtail (Setaria faberii); test: Test A preemergence; settings: Setaria faberi, pre-emergence, 240 h, 0 to 100 scale where 0 is no effect and 100 is complete control, read-out: Foxtail, Giant plant response rating
Method in brief: as §1

[4] = system: ryegrass, Italian (Italian ryegrass, Lolium multiflorum); test: Test A preemergence; settings: Lolium multiflorum, pre-emergence, 240 h, 0 to 100 scale where 0 is no effect and 100 is complete control, read-out: Ryegrass, Italian plant response rating
Method in brief: as §1

[5] = system: ragweed (common ragweed, Ambrosia elatior); test: Test A preemergence; settings: Ambrosia artemisiifolia, pre-emergence, 240 h, 0 to 100 scale where 0 is no effect and 100 is complete control, read-out: Ragweed plant response rating
Method in brief: as §1

[6] = system: pigweed (Amaranthus retroflexus); test: Test A preemergence; settings: Amaranthus retroflexus, pre-emergence, 240 h, 0 to 100 scale where 0 is no effect and 100 is complete control, read-out: Pigweed plant response rating
[7] = system: sedge, umbrella (small-flower umbrella sedge, Cyperus difformis); test: Test B flooded paddy test; settings: Cyperus difformis, 250 g ai/ha, Flood; 0 to 100 scale where 0 is no effect and 100 is complete control; read-out: Sedge, Umbrella plant response rating
Method in brief: (§2)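 Rating scale 0–100 (visual, vs untreated controls) after a 13–15 d greenhouse period; application to the flood layer, 3 cm above soil and maintained; plants at 2-leaf stage when treated.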

[8] = system: barnyardgrass (Echinochloa crus-galli); test: Test B flooded paddy test; settings: Echinochloa crus-galli, 250 g ai/ha, Flood; 0 to 100 scale where 0 is no effect and 100 is complete control; read-out: Barnyardgrass plant response rating
Method in brief: as §2

[9] = system: ducksalad (Heteranthera limosa); test: Test B flooded paddy test; settings: Heteranthera limosa, 250 g ai/ha, Flood; 0 to 100 scale where 0 is no effect and 100 is complete control; read-out: Ducksalad plant response rating
Method in brief: as §2

[10] = system: rice (Oryra sativa); test: Test B flooded paddy test; settings: Oryza sativa, 250 g ai/ha, Flood; 0 to 100 scale where 0 is no effect and 100 is complete control; read-out: Rice plant response rating
Method in brief: as §2

[11] = system: Galium (catchweed bedstraw, Galium aparine); test: Test A postemergence; settings: Galium, post-emergence, 240 h
Method in brief: as §1

[12] = system: barnyardgrass (Echinochloa crus-galli); test: Test A postemergence; settings: Echinochloa crus-galli, post-emergence, 240 h
Method in brief: as §1

[13] = system: Kochia (Kochia scoparia); test: Test A postemergence; settings: Bassia scoparia, post-emergence, 240 h
Method in brief: as §1

[14] = system: giant foxtail (Setaria faberii); test: Test A postemergence; settings: Setaria faberi, post-emergence, 240 h
Method in brief: as §1

[15] = system: ryegrass, Italian (Italian ryegrass, Lolium multiflorum); test: Test A postemergence; settings: Lolium multiflorum, post-emergence, 240 h
Method in brief: as §1

[16] = system: wheat (Triticum aestivum); test: Test A postemergence; settings: Triticum aestivum, post-emergence, 240 h
Method in brief: as §1

[17] = system: corn (Zea mays); test: Test A postemergence; settings: Zea mays, post-emergence, 240 h
Method in brief: as §1

[18] = system: blackgrass (Alopecurus myosuroides); test: Test A postemergence; settings: Alopecurus myosuroides, post-emergence, 240 h
Method in brief: as §1

[19] = system: ragweed (common ragweed, Ambrosia elatior); test: Test A postemergence; settings: Ambrosia artemisiifolia, post-emergence, 240 h
Method in brief: as §1

[20] = system: pigweed (Amaranthus retroflexus); test: Test A postemergence; settings: Amaranthus retroflexus, post-emergence, 240 h
Method in brief: as §1

[21] = 125 g ai/ha, preemergence, approx. 10 d

O=C1NC[C@H](c2ccc(C(F)(F)F)cn2)[C@H]1C(=O)Nc1cccc(F)c1F [Compound 1104]
pest or weed control at 31 g/ha ([1]; 31 g ai/ha, Preemergence): 0%
pest or weed control at 125 g/ha [1, 21]: 50%
pest or weed control at 31 g/ha ([2]; 31 g ai/ha, Preemergence): 0%
pest or weed control at 125 g/ha [2, 21]: 0%
pest or weed control at 31 g/ha ([3]; 31 g ai/ha, Preemergence): 0%
pest or weed control at 125 g/ha [3, 21]: 70%
pest or weed control at 31 g/ha ([4]; 31 g ai/ha, Preemergence): 0%
pest or weed control at 125 g/ha [4, 21]: 0%
pest or weed control at 31 g/ha ([5]; 31 g ai/ha, Preemergence): 0%
pest or weed control at 125 g/ha [5, 21]: 0%
pest or weed control at 31 g/ha ([6]; 31 g ai/ha, Preemergence): 0%
pest or weed control at 125 g/ha [6, 21]: 0%
pest or weed control at 250 g/ha [7]: 0%
pest or weed control at 250 g/ha [8]: 40%
pest or weed control at 250 g/ha [9]: 100%
pest or weed control at 250 g/ha [10]: 20%
pest or weed control at 125 g/ha ([11]; 125 g ai/ha, postemergence, visual injury on 0 to 100 scale (0 no effect, 100 complete control), approx. 10 d, read-out: Galium plant response rating): 0%
pest or weed control at 31 g/ha ([11]; Postemergence, 31 g ai/ha, visual injury after approx. 10 d, 0 to 100 scale, 0 no effect, 100 complete control, read-out: Plant response rating, Galium): 0%
pest or weed control at 125 g/ha ([12]; 125 g ai/ha, postemergence, visual injury on 0 to 100 scale (0 no effect, 100 complete control), approx. 10 d, read-out: Barnyardgrass plant response rating): 30%
pest or weed control at 31 g/ha ([12]; Postemergence, 31 g ai/ha, visual injury after approx. 10 d, 0 to 100 scale, 0 no effect, 100 complete control, read-out: Plant response rating, Barnyardgrass): 0%
pest or weed control at 125 g/ha ([13]; 125 g ai/ha, postemergence, visual injury on 0 to 100 scale (0 no effect, 100 complete control), approx. 10 d, read-out: Kochia plant response rating): 0%
pest or weed control at 31 g/ha ([13]; Postemergence, 31 g ai/ha, visual injury after approx. 10 d, 0 to 100 scale, 0 no effect, 100 complete control, read-out: Plant response rating, Kochia): 0%
pest or weed control at 125 g/ha ([14]; 125 g ai/ha, postemergence, visual injury on 0 to 100 scale (0 no effect, 100 complete control), approx. 10 d, read-out: Foxtail, Giant plant response rating): 0%
pest or weed control at 31 g/ha ([14]; Postemergence, 31 g ai/ha, visual injury after approx. 10 d, 0 to 100 scale, 0 no effect, 100 complete control, read-out: Plant response rating, Foxtail, Giant): 0%
pest or weed control at 125 g/ha ([15]; 125 g ai/ha, postemergence, visual injury on 0 to 100 scale (0 no effect, 100 complete control), approx. 10 d, read-out: Ryegrass, Italian plant response rating): 0%
pest or weed control at 31 g/ha ([15]; Postemergence, 31 g ai/ha, visual injury after approx. 10 d, 0 to 100 scale, 0 no effect, 100 complete control, read-out: Plant response rating, Ryegrass, Italian): 0%
plant injury at 125 g/ha ([16]; 125 g ai/ha, postemergence, visual injury on 0 to 100 scale (0 no effect, 100 complete control), approx. 10 d, read-out: Wheat plant response rating): 0%
plant injury at 31 g/ha ([16]; Postemergence, 31 g ai/ha, visual injury after approx. 10 d, 0 to 100 scale, 0 no effect, 100 complete control, read-out: Plant response rating, Wheat): 0%
plant injury at 125 g/ha ([17]; 125 g ai/ha, postemergence, visual injury on 0 to 100 scale (0 no effect, 100 complete control), approx. 10 d, read-out: Corn plant response rating): 0%
Corn plant response rating (crop injury, 0 = no effect, 100 = complete kill) at 31 g/ha ([17]; Postemergence, 31 g ai/ha, visual injury after approx. 10 d, 0 to 100 scale, 0 no effect, 100 complete control): 0%
pest or weed control at 125 g/ha ([18]; 125 g ai/ha, postemergence, visual injury on 0 to 100 scale (0 no effect, 100 complete control), approx. 10 d, read-out: Blackgrass plant response rating): 0%
pest or weed control at 31 g/ha ([18]; Postemergence, 31 g ai/ha, visual injury after approx. 10 d, 0 to 100 scale, 0 no effect, 100 complete control, read-out: Plant response rating, Blackgrass): 0%
pest or weed control at 125 g/ha ([19]; 125 g ai/ha, postemergence, visual injury on 0 to 100 scale (0 no effect, 100 complete control), approx. 10 d, read-out: Ragweed plant response rating): 0%
pest or weed control at 31 g/ha ([19]; Postemergence, 31 g ai/ha, visual injury after approx. 10 d, 0 to 100 scale, 0 no effect, 100 complete control, read-out: Plant response rating, Ragweed): 0%
pest or weed control at 125 g/ha ([20]; 125 g ai/ha, postemergence, visual injury on 0 to 100 scale (0 no effect, 100 complete control), approx. 10 d, read-out: Pigweed plant response rating): 0%
pest or weed control at 31 g/ha ([20]; Postemergence, 31 g ai/ha, visual injury after approx. 10 d, 0 to 100 scale, 0 no effect, 100 complete control, read-out: Plant response rating, Pigweed): 0%
